Measured values published in US11364222B2, “Combination therapy for treatment of cancer” (G1 Therapeutics, Inc., priority 2017, dated 2022).
Entries after “also recorded” stand apart in the source; their conditions may differ.

Tests used:
[1] = tested on: MCF-7 cells; assay: MCF7 7 day proliferation assay in the presence of 0.1 nM E2 (Hoechst DNA content); type: cell-based; settings: for IC50: Homo sapiens, MCF7, 168 h, read-out: IC50, MCF7 proliferation
[2] = tested on: MCF-7 cells; assay: MCF7 7 day proliferation assay in the presence of 20 nM insulin (Hoechst DNA content); type: cell-based; settings: Homo sapiens, MCF7, 168 h, read-out: IC50, MCF7 insulin driven proliferation
[3] = tested on: MCF7:5C; assay: Cell viability of MCF7:5C (tamoxifen resistant), fluorescent DNA quantitation; type: cell-based; settings: 144 h, read-out: MCF-7:5C IC50
[4] = tested on: MCF7:WS8; assay: Cell viability of MCF7:WS8, fluorescent DNA quantitation; type: cell-based; settings: MCF7:WS8 cells, day 4, total DNA; for IC50: 96 h, read-out: MCF-7WS8 IC50
[5] = Glucuronidation in gut intestinal mucosa and liver S9 fraction; type: in vitro ADME; settings: gut intestinal mucosa and human S9 fraction from the liver
[6] = tested on: estrogen-receptor negative cell; assay: Estrogen-receptor negative cell proliferation (summary statement); type: cell-based
[7] = Oral bioavailability (summary statement); settings: in vivo
[8] = target: T1, estrogen receptor (ER) (Homo sapiens, UniProt P03372); settings: MCF7 cells, presence or absence of proteasome pathway inhibitor MG132, FIG. 4
T1 sequence (P03372 1-595): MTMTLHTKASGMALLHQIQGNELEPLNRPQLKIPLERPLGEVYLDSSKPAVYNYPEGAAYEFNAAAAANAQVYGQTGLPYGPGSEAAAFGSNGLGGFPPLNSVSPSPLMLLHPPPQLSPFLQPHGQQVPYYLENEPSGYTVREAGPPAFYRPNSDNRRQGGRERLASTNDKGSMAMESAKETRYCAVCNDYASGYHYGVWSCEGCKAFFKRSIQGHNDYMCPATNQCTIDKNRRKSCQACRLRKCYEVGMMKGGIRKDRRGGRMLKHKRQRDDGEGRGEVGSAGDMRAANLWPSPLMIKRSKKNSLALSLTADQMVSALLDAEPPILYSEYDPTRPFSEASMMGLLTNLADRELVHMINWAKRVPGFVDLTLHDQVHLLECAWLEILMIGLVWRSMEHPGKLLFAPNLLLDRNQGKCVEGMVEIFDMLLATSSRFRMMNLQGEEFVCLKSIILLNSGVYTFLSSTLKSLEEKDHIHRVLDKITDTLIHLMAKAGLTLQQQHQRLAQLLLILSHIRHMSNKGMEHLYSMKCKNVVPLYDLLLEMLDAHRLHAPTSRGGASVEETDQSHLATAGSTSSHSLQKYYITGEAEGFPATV

[9] = target: hERG (Homo sapiens, UniProt Q12809); assay: hERG inhibition (summary statement)
[10] = tested on: LTED xenograft tumors; assay: LTED xenograft tumors, model of aromatase inhibitor resistance; type: in vivo, OVX nu/nu (ovariectomy nude) mice; settings: Compound 20 5, 10, 30 or 100 mg/kg, 30 days of treatment, FIG. 13
[11] = tested on: estrogen-receptor positive cell; assay: Estrogen-receptor positive cell proliferation (summary statement); type: cell-based
[12] = tested on: tamoxifen-resistant (TamR) xenograft tumors; assay: Tamoxifen-resistant (TamR) xenograft tumors, tumor volume; type: in vivo; settings: 30 mg/kg qd and 100 mg/kg qd, approximately 70 days, FIG. 12B

Chain of hERG (Q12809 whole entry): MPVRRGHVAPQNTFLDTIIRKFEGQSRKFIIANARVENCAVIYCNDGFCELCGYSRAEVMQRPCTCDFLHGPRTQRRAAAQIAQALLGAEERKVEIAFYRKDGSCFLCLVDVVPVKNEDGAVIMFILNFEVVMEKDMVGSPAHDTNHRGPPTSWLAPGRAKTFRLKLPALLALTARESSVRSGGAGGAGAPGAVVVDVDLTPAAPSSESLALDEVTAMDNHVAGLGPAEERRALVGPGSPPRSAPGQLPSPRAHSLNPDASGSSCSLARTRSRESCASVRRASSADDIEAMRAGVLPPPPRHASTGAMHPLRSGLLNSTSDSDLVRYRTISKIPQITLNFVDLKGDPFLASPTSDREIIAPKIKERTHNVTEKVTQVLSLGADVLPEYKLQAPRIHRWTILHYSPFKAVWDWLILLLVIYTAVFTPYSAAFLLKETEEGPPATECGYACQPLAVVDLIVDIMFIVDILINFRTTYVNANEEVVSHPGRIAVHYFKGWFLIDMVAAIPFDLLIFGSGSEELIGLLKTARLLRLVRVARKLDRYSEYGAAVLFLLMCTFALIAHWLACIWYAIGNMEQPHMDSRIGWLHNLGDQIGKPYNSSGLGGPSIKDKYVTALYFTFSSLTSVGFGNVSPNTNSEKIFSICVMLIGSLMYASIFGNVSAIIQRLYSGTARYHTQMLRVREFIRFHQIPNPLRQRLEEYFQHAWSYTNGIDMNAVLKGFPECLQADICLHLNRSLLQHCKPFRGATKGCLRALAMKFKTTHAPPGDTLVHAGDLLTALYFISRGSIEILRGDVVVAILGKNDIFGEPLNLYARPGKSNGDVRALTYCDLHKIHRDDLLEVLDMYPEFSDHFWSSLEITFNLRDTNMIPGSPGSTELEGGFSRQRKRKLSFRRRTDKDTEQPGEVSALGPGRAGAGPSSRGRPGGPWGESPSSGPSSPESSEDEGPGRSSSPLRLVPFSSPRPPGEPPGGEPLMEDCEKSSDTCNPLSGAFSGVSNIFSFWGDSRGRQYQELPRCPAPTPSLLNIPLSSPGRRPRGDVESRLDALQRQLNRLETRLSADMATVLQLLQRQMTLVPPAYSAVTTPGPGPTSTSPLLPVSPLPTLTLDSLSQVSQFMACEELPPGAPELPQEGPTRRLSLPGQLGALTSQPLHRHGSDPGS

Which IC50 [1] does the source give for `O=C(c1ccc(OCCN2CCCCC2)cc1)c1c(-c2ccc(O)cc2)sc2cc(O)ccc12` [raloxifene] here?
The IC50 was 0.77 nM.

For `CC/C(=C(/c1ccc(/C=C/C(=O)O)cc1)c1ccc2[nH]ncc2c1)c1ccc(F)cc1Cl` [GDC-0810], which IC50 ([1]; 0.1 nM estradiol (E2), 7 day) is on record?
The IC50 was 1.84 nM.

What about the IC50 ([2]; 20 nM insulin, 7 day) of the same molecule?
Its IC50 is 0.055 nM.

Which IC50 [1] does the source give for `Cc1c(-c2ccc(O)cc2)n(Cc2ccc(OCCN3CCCCCC3)cc2)c2ccc(O)cc12` [bazedoxifene] here?
Its IC50 is 72 nM.

Which results are given for `Cc1ccc(C(=O)c2sc3cc(O)ccc3c2Oc2ccc(NC(=O)C(=O)O)cc2)c(C)c1` [Compound 19, 2-((4-((2-(2,4-Dimethylbenzoyl)-6-hydroxybenzo[b]thiophen-3-yl)oxy)phenyl)amino)-2-oxoacetic acid]?
IC50 [3]: > 10 nM; MCF-7WS8 IC50 (nM) [4]: No Inhibition

For `CC/C(=C(\c1ccc(O)cc1)c1ccc(OCCN(C)C)cc1)c1ccccc1` [4-hydroxytamoxifen], which IC50 [1] is on record?
Its IC50 is 3.46 nM.

With `CC/C(=C(\c1ccccc1)c1ccc(/C=C/C(=O)O)cc1)c1ccccc1` [GW-5638, Etacstil] as the molecule, how does the IC50 ([1]; 0.1 nM estradiol (E2), 7 day) read?
The IC50 was 946 nM.

With `Cc1cc(F)ccc1C(=O)c1sc2cc(O)ccc2c1Oc1ccc(/C=C/C(=O)O)cc1F` [Compound 15, (E)-3-(3-Fluoro-4-((2-(4-fluoro-2-methylbenzoyl)-6-hydroxybenzo[b]thiophen-3-yl)oxy)phenyl) acrylic acid] as the molecule, how does the IC50 [3] read?
The IC50 was less than 10 nM.

And the IC50 [4]?
The IC50 was less than 10 nM.

For `C[C@]12C[C@H](c3ccc(OCCCCCS(=O)(=O)CCCC(F)(F)C(F)(F)F)cc3)[C@@H]3c4ccc(O)cc4CC[C@H]3[C@@H]1CC[C@@H]2O` [RU 58668], which IC50 ([1]; 0.1 nM estradiol (E2), 7 day) is on record?
Its IC50 is 0.052 nM.

What about the IC50 ([2]; 20 nM insulin, 7 day) of the same molecule?
The IC50 was 0.013 nM.

With `Cc1cc(F)ccc1C(=O)c1sc2cc(O)ccc2c1Oc1ccc(NC(=O)C(=O)O)cc1` [Compound 18, 2-((4-((2-(4-Fluoro-2-methylbenzoyl)-6-hydroxybenzo[b]thiophen-3-yl)oxy)phenyl)amino)-2-oxoacetic acid] as the molecule, how does the “MCF-7WS8 IC50 (nM)” value [4] read?
Its value is “No Inhibition”.

Which results are given for `C[C@@H]1Cc2c([nH]c3ccccc23)[C@@H](c2c(F)cc(/C=C/C(=O)O)cc2F)N1CC(C)(C)F` [AZD9496]?
IC50 [1]: 0.04 nM; IC50 [2]: 0.002 nM

For `Cc1cc(F)ccc1C1(c2sc3cc(O)ccc3c2Oc2ccc(/C=C/C(=O)O)cc2)CC1` [Compound 17, (E)-3-(4-((2-(1-(4-Fluoro-2-methylphenyl)cyclopropyl)-6-hydroxybenzo[b]thiophen-3-yl)oxy)phenyl) acrylic acid], which IC50 [3] is on record?
Its IC50 is less than 100 nM.

What about the IC50 [4] of the same molecule?
The IC50 was less than 100 nM.

Which IC50 ([1]; 0.1 nM estradiol (E2), 7 day) does the source give for `CC/C(=C(\c1ccccc1)c1ccc(/C=C/C(=O)O)cc1)c1ccc(O)cc1` [GW-7604] here?
Its IC50 is 1.81 nM.

Which IC50 [1] does the source give for `C[C@]12CC[C@@H]3c4ccc(O)cc4C[C@@H](CCCCCCCCC[S+]([O-])CCCC(F)(F)C(F)(F)F)[C@H]3[C@@H]1CC[C@@H]2O` (stereo partly shown) [fulvestrant] here?
The IC50 was 0.86 nM.

What about the IC50 [2] of the same molecule?
The IC50 was 0.149 nM.

For `Cc1cc(F)cc(C)c1C(=O)c1sc2cc(O)ccc2c1Oc1ccc(/C=C/C(=O)O)cc1` [Compound 20, (E)-3-(4-((2-(4-Fluoro-2,6-dimethylbenzoyl)-6-hydroxybenzo[b]thiophen-3-yl)oxy)phenyl) acrylic acid], which “times more potent than fulvestrant” value ([1]; 0.1 nM E2, 7 day proliferation) is on record?
The value was roughly 4 times.

And the IC50 ([1]; 0.1 nM estradiol (E2), 7 day)?
Its IC50 is 0.26 nM.

And the IC50 ([2]; 20 nM insulin, 7 day)?
Its IC50 is 0.028 nM.

What about the glucuronidation [5] of the same molecule?
Its glucuronidation is “observed”.

What about the IC50 [6] of the same molecule?
The IC50 was greater than 10 nM.

What about the oral bioavailability [7] of the same molecule?
The oral bioavailability was “good”.

What about the “degradation of the estrogen receptor (ESR1a) with or without MG132” value [8] of the same molecule?
The value was “dependent on the absence of MG132”.

And the IC50 [9]?
Its IC50 is greater than 10000 nM.

What about the tumor volume [10] of the same molecule?
Its tumor volume is “decrease in tumor volume correlated with the dose level; also recorded: effective in decreasing tumor volume at all doses”.

And the IC50 [11]?
The IC50 was less than 1 nM.

What about the “tumor volume, Compound 20 alone” value [12] of the same molecule?
The value was “effective in decreasing tumor volume”.

For `Oc1ccc2c(c1)CC[C@H](c1ccccc1)[C@@H]2c1ccc(OCCN2CCCC2)cc1` [lasofoxofene, Lasofoxifene], which IC50 ([1]; 0.1 nM estradiol (E2), 7 day) is on record?
The IC50 was 0.17 nM.

For `Cc1cc(F)ccc1C(F)(F)c1sc2cc(O)ccc2c1Oc1ccc(/C=C/C(=O)O)cc1` [Compound 16, (E)-3-(4-((2-(Difluoro(4-fluoro-2-methylphenyl)methyl)-6-hydroxybenzo[b]thiophen-3-yl)oxy)phenyl)acrylic acid], which IC50 [3] is on record?
The IC50 was less than 100 nM.

What about the IC50 [4] of the same molecule?
The IC50 was less than 100 nM.

Which IC50 [3] does the source give for `Cc1cc(F)ccc1C(=O)c1sc2cc(O)ccc2c1Oc1c(F)cc(/C=C/C(=O)O)cc1F` [Compound 14, (E)-3-(3,5-Difluoro-4-((2-(4-fluoro-2-methylbenzoyl)-6-hydroxybenzo[b]thiophen-3-yl)oxy)phenyl) acrylic acid] here?
Its IC50 is greater than 10 nM.

And the IC50 [4]?
The IC50 was greater than 10 nM.

Which “MCF-7WS8 IC50 (nM)” value [4] does the source give for `O=C(O)/C=C/c1ccc(Oc2c(C(=O)c3ccc(O)cc3)sc3cc(O)ccc23)cc1` [Compound 2, (E)-3-(4-((6-Hydroxy-2-(4-hydroxybenzoyl)benzo[b]thiophen-3-yl)oxy)phenyl) acrylic acid] here?
Its value is “No Inhiibition”.
